Columns and labels:
Assay type in all cases: cell-based
[1] = test system: Escherichia coli (E. coli—ATCC #10536); experiment: Synergy test: high resolution MBC microtiter plate assay, phosphate buffer containing 35% dipropylene glycol, 15 seconds contact; conditions: E. coli 10536; for SI (Synergy Index = Qa/QA + Qb/QB): at Qa and Qb, <1 synergy, 1 additivity, >1 antagonism
From the text: One measure of synergy is -the industrially accepted method described by Kull, F. C.; Eisman, P. C.; Sylwestrowicz, H. D. and Mayer, R. L., in Applied Microbiology 9:538-541 (1961), using the ratio determined by the formula:
Qa/QA+Qb/QB=Synergy Index (“SI”)
wherein: QA=concentration of compound A (first component) in percent, acting alone, which produced an end point (MBC of Compound A). Qa =concentration of compound A in percent, in the mixture, which produced an end point. QB=concentration of compound B (second component) in percent, acting alone, which produced an end point (MBC of Compound B). Qb=concentration of compound B in percent, in the mixture, which produced an end point.
When the sum of Qa/QA and Qb/QB is greater than one, antagonism is indicated. […] The lower the SI, the greater is the synergy shown by that particular mixture. The minimum biocidal concentration (MBC) of a microbicide is the lowest concentration tested under a specific set of conditions that provides complete kill of the tested microorganisms.
Synergy tests were-conducted using standard microtiter plate assays with, phosphate buffer containing 35% dipropylene glycol (DPG). In this method, a wide range of combinations of chemicals was tested by conducting high resolution MBC assays of Component (A) in the presence of various concentrations of Component (B). High resolution MBCs were determined by adding varying amounts of microbicide to one column of a microtiter plate and doing subsequent ten-fold dilutions using an automated liquid handling system to obtain a series of closely spaced endpoints. The MBC plate was inoculated one column at a time with the test microorganism. An aliquot of the inoculated well was transferred at 15 seconds to a plate containing a neutralizing agent (D/E Neutralizing Broth), mixed and held for 5 minutes before being transferred to a growth plate containing trypticase soy broth (TSB). The TSB plate was incubated at 37° C. and read for the presence/absence of growth at 24 hours. The lowest level tested that provided complete kill (as evidenced by no growth in the microtitre plate) of the test organisms in 15 seconds is the minimum biocidal concentration (MBC).
The synergy of the combinations of the present invention was determined against a bacterium, Escherichia coli (E. coli—ATCC #10536), at a concentration of approximately 1×10^8 bacteria per mL. This microorganism is representative of natural contaminants in many consumer and industrial applications.

[2] = test system: Escherichia coli (10536 strain); experiment: Antimicrobial efficacy in water, 15 seconds contact, mean bacterial survival NMBS by colony count
Method: An overnight culture of Escherichia coli (10536 strain) was prepared in 50 ml total volume of TSB broth, grown for ca. 18 hrs at 37° C. and shaken at 150 rpm. 1 ml of this overnight E. coli culture was transferred to 50 ml of fresh TSB broth and incubated at 37° C. at 150 rpm for ca. 4 hours. […] This bacterial stock was used for assaying against antimicrobial actives (in triplicate).
The following assay describes the testing of 8 materials using 6 dilutions across half of a 96-well micro litre plate (MTP). Using this approach it is possible to assay 16 actives (without replicates) with, one full dilution plate, replicating this set up in two halves of the plate columns, 1-6 and 7-12.
IM solutions of the test actives were prepared in dimethylsulphoxide (DMSO).
Aliquots (270 μl) of the materials at 1.11 times the final concentration were dispensed into the wells of the MTP along one column (A1-H1). This MTP was labeled as the “Screening plate”.
In another MTP, labeled as the “Dilution plate”, 270 μl of D/E neutralising solution from DIFCO Composition was added to column 1. The composition of the neutralising solution was as follows: pancreatic digest of casein, 5.0 g/L; Yeast Extract, 2.5 g/L; Dextrose, 10 g/L, sodium thioglycollate, 1.0 g/L, sodium thiosulphate, 6.0 g/L; sodium bisulphite, 2.5 g/L; Polysorbate 80, 5.0 g/L; lecithin 7.0 g/L; bromocresol purple, 0.02 g/L with a pH is the range 7.6±0.2.
270 μl of tryptone diluent solution was added to all the remaining wells of the Dilution MTP (columns 2-6).
Bacterial stock (30 μl) was then added to the prepared 270 μl of the solution of actives in the Screening Plate and mixed, using a multichannel pipette with 8 tips to aspirate and dispense the same volume of bacterial stock in parallel to 8 wells in rows A-H. After a contact time of 15 seconds, the mixtures were quenched by transferring 30 μl volumes of the mixtures into the 270 μl D/E neutralising solution in the prepared dilution plate, using aspiration to mix. After exactly 5 minutes in the D/E neutralising solution, 30 μl volumes were transferred from column 1 to column 2 of the Dilution MTP and mixed, before transferring further 30 μl volumes from column 2 into column 3. This process was repeated serially diluting the bacteria across the plate to column 6.
30 μl volumes from each well in the Dilution MTP were transferred onto pre-labeled segment of Tryptone Soya Agar (TSA) plates starting from the lowest bacterial concentration (highest dilution, column 6) to the highest bacterial concentration (column 1). The TSA plates were allowed to stand for ca. 2 hours so that the 30 μl inocula spots could dry and the plates were then inverted and incubated overnight at 37° C. before enumerating the bacterial colonies at the labeled dilutions to determine the effects of the actives on bacterial growth.
Mean bacterial survival numbers NMBS (expressed in Log CFU/ml) are obtained by first determining the segment of the TSA plate where the number of bacterial colonies is countable. From the colony number in this segment, NMBS is calculated by the formula: […]
Here, Ncol is the colony count, and DF is the dilution factor taken from the MTP-well corresponding to the TSA plate segment (i.e. DF may range from 1 for the quench, to 6 for the highest dilution).

[3] = test system: Staphylococcus aureus (10788 strain); experiment: as above
[4] = test system: Escherichia coli (E. coli—ATCC #10536); experiment: Automated assessment of efficacy in model surfactant base (2.85% sodium cocoyl glycinate + 1.85% sodium lauroamphoacetate, pH 10), 15 seconds exposure, OD450/OD590 readout; conditions: for MBC: Escherichia coli, ATCC10536, 15 s, in 2.85% sodium cocoyl glycinate + 1.85% sodium lauroamphoacetate solution at pH 10, E. coli, read-out: MBC (% w/v); for No. of replicates showing growth (out of 4) / Δ OD 450 nm = OD450 (time = 16 hours) - OD450 (time zero), Mean / Δ OD 590 nm OD590 (time = 16 hours) - OD590 (time zero), Mean: model surfactant solution
Method: Solutions were prepared such that the concentrations of the surfactant components and test actives were 1.1×x the final desired concentration in order to allow for dilution with the bacterial inoculum in the test. The solutions were manually adjusted to pH 10.0 by drop wise addition of sodium hydroxide solution, as measured with a phi meter at ambient temperature.
Tests were conducted using standard microtiter plate assays using an automated liquid handling system, 270 μl of the surfactant test solution was pipetted into each well of the microtitre plate and 30 μl of the bacterial suspension was then added. After exactly 15 seconds of bacterial exposure, a 30 μl volume of bacterial cells was withdrawn and transferred to 270 μl of D/E quench solution. After 5 minutes in the D/E quench, the optical density (OD) was measured for each plate in turn at two specific wavelengths (450 nm and 590 nm). These provide a dual check of antimicrobial activity, as the OD450 reading is specific for the yellow colour of D/E quench when bacterial growth is observed, whereas OD590 is specific for the initial purple colour of the D/E quench which is retained if no bacterial growth is observed. After the time zero OD measurements, plates were then incubated at 37° C. overnight (16 hours) before repeating the OD measurements. Delta OD values were calculated by subtracting […] the initial value at time zero. Bacterial growth is observed as an increase in OD450 and a decrease in ΔOD590. To identify antibacterially efficacious systems (those preventing appreciable bacterial growth after incubation), the following threshold changes in OD readings have been adopted: if (1), OD450 increases by less than 0.2 absorbance unit on incubation and (2). OD590 decreases by less than 0.35 unit on incubation. Conversely, where OD450 increases by more than 0.2 AU and OD590 decreases by more than 0.35 unit after incubation, corresponding to a colour shift from purple to yellow, the test system allows bacterial growth and is not deemed efficacious. Four replicate measurements in the same plate have been made for each test system. The number of replicate wells showing either bacterial growth or no growth is also readily assessed by eye by following the colour change.
Dose responses for individual components and binary mixtures of actives at a used concentration ratio were generated by sequential dilution of liquors with further surfactant solution to obtain a series of endpoints.
In some selected cases, the combinations were also tested at the weight ratio 1:1.

Structure (SMILES)	SI (Synergy Index = Qa/QA + Qb/QB) [1]	Log reduction E. coli ATCC 10536 ([2]; component alone at 0.1% w/v)	Log reduction S. aureus ATCC 6538 ([3]; component alone at 0.1% w/v)	MBC [4]	No. of replicates showing growth (out of 4) ([4]; component alone at 0.2% w/v)	Δ OD 450 nm = OD450 (time = 16 hours) - OD450 (time zero), Mean ([4]; component alone at 0.2% w/v)	Δ OD 590 nm OD590 (time = 16 hours) - OD590 (time zero), Mean ([4]; component alone at 0.2% w/v)	No. of replicates showing growth (out of 4) ([4]; component alone at […] w/v)	No. of replicates showing growth (out of 4) ([4]; component alone at 0.125% w/v)	Δ OD 450 nm = OD450 (time = 16 hours) - OD450 (time zero), Mean ([4]; component alone at 0.125% w/v)	Δ OD 590 nm OD590 (time = 16 hours) - OD590 (time zero), Mean ([4]; component alone at 0.125% w/v)	further results
C=CC(C)(O)CCC=C(C)C (racemic) [3,7-dimethylocta-1,6-dien-3-ol]	1.00	0.06	−0.13	> 5000 µg/mL	4 out of 4	−0.53	0.60	4 out of 4	–	–	–	Qb: MBC of the second component (B) acting alone (QB) ([1]; component alone (Qa = 0), complete kill in 15 seconds): 0.5 weight %; No. of replicates showing growth (out of 4) ([4]; component alone at 0.5% w/v): 3 out of 4; Δ OD 450 nm = OD450 (time = 16 hours) - OD450 (time zero), Mean ([4]; component alone at 0.5% w/v): −0.30; Δ OD 590 nm OD590 (time = 16 hours) - OD590 (time zero), Mean ([4]; component alone at 0.5% w/v): 0.50
CC(C)(C)c1ccccc1O [2-tert-butylphenol]	1.00	–	–	2000 µg/mL	–	–	–	4 out of 4	4 out of 4	−1.48	0.30	No. of replicates showing growth (out of 4) ([4]; component alone at 0.05% w/v): 4 out of 4; Δ OD 450 nm = OD450 (time = 16 hours) - OD450 (time zero), Mean ([4]; component alone at 0.05% w/v): −1.58; Δ OD 590 nm OD590 (time = 16 hours) - OD590 (time zero), Mean ([4]; component alone at 0.05% w/v): 0.22; No. of replicates showing growth (out of 4) ([4]; component alone at 0.175% w/v): 4 out of 4; Δ OD 450 nm = OD450 (time = 16 hours) - OD450 (time zero), Mean ([4]; component alone at 0.175% w/v): −1.08; Δ OD 590 nm OD590 (time = 16 hours) - OD590 (time zero), Mean ([4]; component alone at 0.175% w/v): 0.57; Δ OD 450 nm = OD450 (time = 16 hours) - OD450 (time zero), Mean ([4]; component alone at […] w/v): −1.50; Δ OD 590 nm OD590 (time = 16 hours) - OD590 (time zero), Mean ([4]; component alone at […] w/v): 0.28; Phenol MBC %(w/v) ([4]; phenol alone, model surfactant, E. Coli): 0.2 %(w/v)
CCCc1ccc(O)cc1 [4-propylphenol]	1.00	–	–	> 2000 µg/mL	4 out of 4	−1.49	0.43	4 out of 4	4 out of 4	−1.56	0.37	–
CC=Cc1ccccc1O [2-propenylphenol]	–	1.86	1.92	–	–	–	–	–	–	–	–	Log reduction E. coli ATCC 10536 ([2]; component alone at 0.05% w/v): 1.27; Log reduction S. aureus ATCC 6538 ([3]; component alone at 0.05% w/v): −0.18
